Test results published in patent US20200261427A1 (Al Therapeutics, Inc., priority 2019, published 2020).
Values after ≈ are worked out from the molar mass of the structure shown.

Experiments:
[1] = pH stability screen of rapamycin in 1:1 ethanol:water; assay type: physicochemical; conditions: 0.1 mg/mL in 1:1 ethanol:water, pH 3, 5, unbuffered; 1 week at 5, 25, 40° C. (FIG. 2)
Description: 20 mM citrate buffers were prepared at pH 3, 5 and 7. With the exception of the pH 7 buffer, these buffers were miscible in 50% ethanol. Rather than reduce the buffer concentration to obtain a higher pH, the third solution was prepared with unbuffered water. An Orion 710A+ pH meter with a Thermo Scientific electrode was used for pH measurement.

[2] = Solubility screening by gravimetric analysis; assay type: physicochemical
Description: Solubility screening was performed by gravimetric analysis. In a glass vial, known amounts of API were added to a known amount of solvent and the sample was rotated with a vial rotator (VWR) at room temperature. If the API completely dissolved, an additional known amount was added. The samples were rotated for at least 48 hours after the last API addition before determining the gravimetric result (i.e., greater than a % w/w or less than a % w/w).

[3] = Stability of rapamycin in solvents PG, TC, DMI; assay type: physicochemical; conditions: 0.2% w/w in DMI, 1 week at 5, 25, 40° C. (FIG. 3)
[4] = Antioxidant screen in Transcutol; assay type: physicochemical
Description: Since there was significant degradation in diethylene glycol monoethyl ether (TC) after 1 week, and TC can generate peroxides, it was selected as the solvent for the antioxidant screen. […] (1) No antioxidant; […] […] The 4-week data at 40° C. was used to calculate the main effects of the two antioxidants and their interaction (Box et al., 1978) for the assay values. The positive effect of BHA (+23.8) was twice the positive effect of Vit. E (+11.6).

physchem = conditions: thermodynamic from solid
Description: (§1) All solutions were buffered with 5 mM citrate buffer at pH 4.5.

[5] = Microscopic examination of rapamycin crystal growth; conditions: rectangular crystals in gels showing crystal growth
[6] = Saturation solubility in solvents and 10% co-solvent aqueous solutions
Description: as §1

rapamycin pH stability [1]: more stable at an acidic pH | Rapamycin solubility % w/w ([2]; Diethylene glycol monoethyl ether (TC)): >13 % w/w | Rapamycin solubility % w/w ([2]; Diisopropyl adipate): <1.0 % w/w | Rapamycin solubility % w/w ([2]; Dimethyl isosorbide (DMI)): >7 % w/w | Rapamycin solubility % w/w ([2]; Hexylene glycol): <1.0 % w/w | Rapamycin solubility % w/w ([2]; Isopropyl myristate): <0.1 % w/w | Rapamycin solubility % w/w ([2]; Light mineral oil): <0.3 % w/w | Rapamycin solubility % w/w ([2]; Medium chain triglycerides): <0.1 % w/w | Rapamycin solubility % w/w ([2]; Octyldodecanol): <1.0 % w/w | Rapamycin solubility % w/w ([2]; PEG 400): <1.5 % w/w | Rapamycin solubility % w/w ([2]; Propylene glycol (PG), room temperature): <0.75 % w/w | Rapamycin Assay (% of Initial) ([4]; 0.002% Vit. E, 25° C., week 1): 98.3 % of Initial | Rapamycin Assay (% of Initial) ([4]; 0.002% Vit. E, 25° C., week 4): 98.2 % of Initial | Rapamycin Assay (% of Initial) ([4]; 0.002% Vit. E, 40° C., week 1): 96.8 % of Initial | Rapamycin Assay (% of Initial) ([4]; 0.002% Vit. E, 40° C., week 2): 97.0 % of Initial | Rapamycin Assay (% of Initial) ([4]; 0.002% Vit. E, 40° C., week 4): 82.2 % of Initial | Rapamycin Assay (% of Initial) ([4]; 0.01% BHA, 25° C., week 1): 99.2 % of Initial | Rapamycin Assay (% of Initial) ([4]; 0.01% BHA, 25° C., week 4): 98.3 % of Initial | Rapamycin Assay (% of Initial) ([4]; 0.01% BHA, 40° C., week 1): 97.1 % of Initial | Rapamycin Assay (% of Initial) ([4]; 0.01% BHA, 40° C., week 2): 98.1 % of Initial | Rapamycin Assay (% of Initial) ([4]; 0.01% BHA, 40° C., week 4): 94.4 % of Initial | Rapamycin Assay (% of Initial) ([4]; 0.2% w/w in Transcutol, No Antioxidant, 25° C., week 1): 95.7 % of Initial | Rapamycin Assay (% of Initial) ([4]; BHA + Vit. E, 25° C., week 1): 98.8 % of Initial | Rapamycin Assay (% of Initial) ([4]; BHA + Vit. E, 25° C., week 4): 98.7 % of Initial | Rapamycin Assay (% of Initial) ([4]; BHA + Vit. E, 40° C., week 1): 96.9 % of Initial | Rapamycin Assay (% of Initial) ([4]; BHA + Vit. E, 40° C., week 2): 98.7 % of Initial | Rapamycin Assay (% of Initial) ([4]; BHA + Vit. E, 40° C., week 4): 96.2 % of Initial | Rapamycin Assay (% of Initial) ([4]; No Antioxidant, 25° C., week 4): 84.6 % of Initial | Rapamycin Assay (% of Initial) ([4]; No Antioxidant, 40° C., week 1): 87.3 % of Initial | Rapamycin Assay (% of Initial) ([4]; No Antioxidant, 40° C., week 2): 79.0 % of Initial | Rapamycin Assay (% of Initial) ([4]; No Antioxidant, 40° C., week 4): 60.8 % of Initial | solubility (physchem; 10% TC and 10% DMI aqueous solutions versus water, pH 4.5, aqueous with cosolvent or surfactant or cyclodextrin): 1.5 to 2 µg/mL (≈ 1.64 to 2.19 µM) | solubility (physchem; 10% propylene glycol (PG) aqueous solution, citrate buffered, pH 4.5, aqueous with cosolvent or surfactant or cyclodextrin): 2.9 µg/mL (≈ 3.17 µM) | solubility (physchem; pH 4.5, aqueous with cosolvent or surfactant or cyclodextrin): 5.2 µg/mL (≈ 5.69 µM) | solubility (physchem; water, citrate buffered, pH 4.5, aqueous buffer): 2.9 µg/mL (≈ 3.17 µM) | length of rapamycin crystals grown [5]: 25-100 microns | Rapamycin Solubility ([6]; 10% Diethylene Glycol Monoethyl Ether (TC), pH 4.5, 5 mM citrate): 4.6 µg/mL | saturation solubility ([6]; in TC): 15.5 % w/w
Structure (SMILES): CO[C@H]1C[C@@H]2CC[C@@H](C)[C@@](O)(O2)C(=O)C(=O)N2CCCC[C@H]2C(=O)O[C@H]([C@H](C)C[C@@H]2CC[C@@H](O)[C@H](OC)C2)CC(=O)[C@H](C)/C=C(\C)[C@@H](O)[C@@H](OC)C(=O)[C@H](C)C[C@H](C)/C=C/C=C/C=C/1C [Rapamycin, rapamycin]
solvent compatibility (solution stability) [3]: most compatible with propylene glycol (PG) and least compatible with dimethyl isosorbide (DMI)
